Source: patent US11471430B2, “Sphingosine analogs and use thereof against bacterial lung infections” (Yeda Research and Development Co. Ltd., priority 2018, dated 2022)

Experiments:
[1] = system: P. aeruginosa strain 762; assay: P. aeruginosa strain 762 killing assay; format: cell-based; settings: Pseudomonas aeruginosa; P. aeruginosa strain 762, 2 hours at 37° C., colonies counted
Experimental: Incubation of bacteria with the sphingosine analogs presented herein was carried out as follows. P. aeruginosa strain 762 was grown in LB medium at 37° C. until the early logarithmic phase (OD550 of 0.2). Bacteria were diluted in PBS (without Ca^+2 and Mg^+2) to a concentration of 5×10^3 CFU/ml. Stock solutions of sphingolipid analogs in 5 mM in 7.5% n-octyl-β-D-glucopyranoside (OGP) or in dimethyl sulfoxide (DMSO) were prepared by sonication and warming to 40° C. The sphingosine analogs presented herein were added to the bacteria (0.05-200 μM in 0.075% OGP or 1% DMSO). Bacteria were incubated with the sphingosine analogs presented herein for 2 hours at 37° C., and 200 μl of a bacteria solution plated on LB agar plates, incubated overnight at 37° C., and colonies counted.
The ability of the sphingo sine analogs presented herein to kill Pseudomonas aeruginosa in vitro, and based on the data shown below, concluded that the SPH analogs presented herein are highly efficient in killing bacteria. Compounds 791598 and 791577 were used as activity assay control references.
FIGS. 1A-D present comparative plots, showing the results of the P. aeruginosa strain 762 killing assay, conducted for sphingosine analogs presented herein.

[2] = biological target: T1, CerS5 (Homo sapiens (Human), UniProt Q8N5B7); assay: CerS5 activity/inhibition assay using NBD sphinganine; format: biochemical; settings: read-out: CerS5 activity (percentage of control); for remaining activity at 25 µM: 25 μM compound; for remaining activity at 50 µM: 50 μM compound; for remaining activity at 75 µM: 75 μM compound
T1 sequence (Q8N5B7 whole entry, species assumed): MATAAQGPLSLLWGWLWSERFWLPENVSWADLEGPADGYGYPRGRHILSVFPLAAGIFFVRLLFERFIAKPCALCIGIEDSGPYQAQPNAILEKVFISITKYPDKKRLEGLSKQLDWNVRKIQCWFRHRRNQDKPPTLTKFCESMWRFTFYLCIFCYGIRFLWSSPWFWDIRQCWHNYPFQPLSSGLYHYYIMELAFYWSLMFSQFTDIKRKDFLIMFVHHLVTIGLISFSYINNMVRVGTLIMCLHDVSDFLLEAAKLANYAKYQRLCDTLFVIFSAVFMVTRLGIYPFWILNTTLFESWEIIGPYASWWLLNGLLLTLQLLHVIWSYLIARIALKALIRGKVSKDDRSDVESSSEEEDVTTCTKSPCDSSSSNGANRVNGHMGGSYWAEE
Experimental: (§1) Ceramide synthase assays were carried out as follows. Cell homogenates were incubated with 15 μM NBD-SPH, 20 μM defatted bovine serum albumin, and 50 μM fatty acyl CoA in a 20 μl reaction volume at 37° C. Reactions were terminated by addition of chloroform/methanol (1:2, v/v) and lipids extracted. Lipids were dried under N2, re-suspended in chloroform/methanol (9:1, v/v) and separated by TLC using chloroform/methanol/2M NH4OH (40:10:1, v/v/v) as the developing solvent. NBD-labelled lipids were visualized using a Typhoon 9410 variable mode imager and quantified by ImageQuantTL (GE Healthcare, Chalfont St Giles, UK).
Table 4 below presents the results for the CerS5 activity/inhibition assay using NBD sphinganine (given as percentage of control).

[3] = biological target: T1, CerS5; assay: N-acylation by CerS5 using labeled palmitoyl CoA, relative to sphinganine; format: biochemical; settings: for N-Acylation using 14C labeled palmitoyl CoA: Yes/No, CerS5; for Rate of N-Acylation (either pmol/mg/min or % of control): unit not given; for Rate of N-Acylation (either pmol/mg/min or % of control) / Rate of N-Acylation: CerS5, labeled palmitoyl CoA; for Rate of N-Acylation: n=1-2; for Rate of N-Acylation (% of control): control sphinganine = 100% acylation
Experimental: (§2) N-acylation was determined by incubating homogenates with 15 μM dhSo, 20 μM defatted BSA and 0.01 uCi C16-[14C] acyl-CoA/46 μM C16 acyl-CoA in a final volume of 250 μl.
An additional assay determined whether the sphingosine analogs presented herein are N-acylated by CerS5 expressed, relative to sphinganine (control; 100% acylation), using labeled palmitoyl CoA (n=1-2).

[4] = biological target: T1, CerS5; assay: Inhibition of ceramide synthesis (CerS5) measured in vitro; format: biochemical
Experimental: as §1

[5] = system: P. aeruginosa; settings: injected immediately prior to infection, or an hour after infection; cited from earlier work
[6] = system: ceramide synthases (CerS); assay: N-acylation by ceramide synthases using 14C labeled CoA; format: biochemical; settings: 14C labeled CoA as a substrate; raw data not shown
Experimental: as §2
To determine whether the sphingosine analogs presented herein can be metabolized by ceramide synthases (CerS—natural sphingosine is a substrate for CerS), their N-acylation using ^14C labeled CoA as a substrate was examined.

| SMILES | EC50 [1] | remaining activity at 25 µM [2] | remaining activity at 50 µM [2] | remaining activity at 75 µM [2] | N-Acylation using 14C labeled palmitoyl CoA [3] | Rate of N-Acylation (either pmol/mg/min or % of control) [3] | CerS5 activity (% of control) [4] | Rate of N-Acylation [3] | Rate of N-Acylation (% of control) [3] | P. aeruginosa infection in CF mice [5] | N-acylation by CerS (substrate or not) [6] |
| --- | --- | --- | --- | --- | --- | --- | --- | --- | --- | --- | --- |
| CCCCCCCCCCCCc1ccc(NC(=O)C(O)CN)cc1 (centres unmarked) [Compound 792211] | 260 ± 90 nM | 163 ± 37.9% | 73.5 ± 8.98% | 49.8 ± 26.6% | Yes | 114.21 ± 3.11 pmol/mg/min or % of control |  |  |  |  |  |
| CCCCCCCCCCCCCCCCNC(=O)C(N)CN (centres unmarked) [Compound 792208] | 720 ± 260 nM | 114 ± 21.4% | 81.9 ± 7.15% | 72.7 ± 5.76% |  | 2.81 ± 1.06 pmol/mg/min or % of control |  |  |  |  |  |
| CCCCCCCCCCCCCCC[C@@H](O)[C@H](N)CN [Compound 791597] | 890 ± 230 nM |  |  |  | No |  | 125.0 ± 31.1 % of control | 18.8 ± 12.3 pmol/mg/min | (3.55% of control) |  |  |
| CCCCCCCC/C=C\CCCCCCCC[C@@H](O)[C@H](N)CO [Compound 791601] | 420 ± 50 nM |  |  |  | Yes |  | 88.5 ± 10.1 % of control | 144.6 ± 51.7 pmol/mg/min | (27.32% of control) |  |  |
| CCCCCCCCCCCCCCCCCCNC(=O)C(N)CN (centres unmarked) [Compound 792209] | > 2500 nM |  |  |  | No |  |  |  |  |  |  |
| CCCCCCCCc1ccc(CCC(N)(CO)CO)cc1 [FTY720, fingolimod] |  |  |  |  |  |  |  |  |  | completely blocked |  |
| CCCCCCCCCCCCc1ccc(NC(=O)[C@H](N)CN)cc1 [Compound 791996] | 810 ± 240 nM | 96.7 ± 12.8% | 104 ± 21.2% | 105 ± 13.9% | No | 0.02 ± 0.003 pmol/mg/min or % of control |  |  |  |  | not substrates for CerS |
| CCCCCCCCCCCCCCNC(=O)[C@@H](N)CN [Compound 791994] | 1310 ± 400 nM |  |  |  | Yes | 25.42 ± 6.97 pmol/mg/min or % of control |  |  |  |  |  |
| CCCCCCCCCCCCC/C=C/[C@@H](O)[C@@H](N)CO [sphingosine] |  |  |  |  |  |  |  |  |  | completely blocked |  |
| CCCCCCCCCC/C=C/CCC(N)(O)CO (centres unmarked) [Compound 791581] | 1090 ± 310 nM |  |  |  | No |  | 71.5 ± 19.0 % of control | 4.2 ± 4.5 pmol/mg/min | (0.79% of control) |  |  |
| CCCCCCCCCCCCCCC[C@H](N)[C@H](N)CN [Compound 791598] | 990 ± 10 nM |  |  |  | No |  | 111.3 ± 34.9 % of control | 10.4 ± 10.1 pmol/mg/min | (1.97% of control) |  |  |
| CCCCCCCCCCCCCCC[C@H](O)[C@H](CO)N(C)C [Compound 791577] | > 2500 nM |  |  |  | No |  | 92.9 ± 28.7 % of control | 4.7 ± 2.4 pmol/mg/min | (0.89% of control) |  |  |
| CCCCC/C=C\C/C=C\CCCCCCCC[C@H](O)[C@@H](N)CO [Compound 791602] |  |  |  |  | Yes |  | 57.3 ± 12.2 % of control | 146.9 ± 0.0 pmol/mg/min | (27.76% of control) |  |  |
| CCCCCCCCCC/C=C/CCC(N)(N)CN [Compound 791582] | 540 ± 180 nM |  |  |  | No |  | 68.2 ± 10.4 % of control | 14.4 ± 7.7 pmol/mg/min | (2.72% of control) |  |  |
| CCCCCCCCCCCCCCc1ccc(NC(=O)C(N)CN)cc1 (centres unmarked) [Compound 792205] | 610 ± 200 nM | 98.5 ± 18.1% | 92.7 ± 19% | 59.4 ± 12.1% | No | 5.21 ± 1.33 pmol/mg/min or % of control |  |  |  |  |  |
| CCCCCCCCCCCCCCCCc1ccc(NC(=O)[C@@H](N)CN)cc1 [Compound 792206] | 1120 ± 180 nM | 76.6 ± 12.8% |  | 125 ± 37.4% | No | 3.78 ± 0.24 pmol/mg/min or % of control |  |  |  |  |  |
| CCCCCCCCCCCCCCC[C@@H](O)[C@@H](N)CO [sphinganine, reference compound] |  |  |  |  |  |  | 100 ± 0 % of control |  |  |  |  |
| CCCCCCCCCCCCc1ccc(NC(=O)[C@@H](N)CN)cc1 [Compound 791995] | 870 ± 91 nM | 107 ± 24% | 119 ± 20.9% | 109 ± 26.9% | No | 0.14 ± 0.004 pmol/mg/min or % of control |  |  |  |  | not substrates for CerS |
| CCCCCCCCCCCCCCNC(=O)[C@H](N)CN [Compound 791993] | 940 ± 322 nM |  |  |  |  | 0.98 ± 0.09 pmol/mg/min or % of control |  |  |  |  |  |
| CCCCCCCCCCCCCCC[C@H](N)[C@H](CN)N(C)C [Compound 791580] | 390 ± 60 nM |  |  |  | No |  | 58.1 ± 20.1 % of control | 6.1 ± 2.6 pmol/mg/min | (1.15% of control) |  |  |
| CCCCCCCCCCCCCCC[C@H](O)[C@H](CN)N(C)C [Compound 791578] | 1440 ± 760 nM |  |  |  | No |  | 90.2 ± 16.4 % of control | 55.0 ± 6.0 pmol/mg/min | (10.39% of control) |  |  |
| CCCCCCCCCCCCc1ccc(NC(=O)[C@@H](N)CCN)cc1 [Compound 792212] | 160 ± 70 nM | 163 ± 82.3% | 138 ± 59% | 119 ± 32.8% | No | 2.77 ± 0.65 pmol/mg/min or % of control |  |  |  |  |  |
| CCCCCCCCCCCCCCC[C@@H](N)[C@H](CN)N(C)C [Compound 791579] | 580 ± 140 nM |  |  |  | No |  | 69.2 ± 8.9 % of control | 4.1 ± 3.0 pmol/mg/min | (0.77% of control) |  |  |
